Laboratory results taken from patent US20230041996A1, “CALCIUM-SENSING RECEPTOR AGONIST COMPOUND AND APPLICATION THEREOF” (BEIJING TUO JIE BIOPHARMACEUTICAL CO. LTD., priority 2019, published 2023).
Square brackets hold non-standard residues; d marks the D form. Peptide text beside a SMILES is read from it. * marks the point of attachment. Cys(free,S-linked) = N[C@@H](CS*)C(=O)O; d2Thi = N[C@H](Cc1cccs1)C(=O)O; dAbu = CC[C@@H](N)C(=O)O

Legend:
[1] = test system: rat peritoneal mast cells; test: In vitro histamine release in rat peritoneal mast cells (histamine ELISA); assay type: cell-based; settings: for Relative fold of histamine release in vitro: test compound final concentration 10 μM, 15 min at 37° C., relative to PBS buffer (1.00); for histamine release levels in rat peritoneal mast cells in vitro relative to etelcalcetide: 10 μM, comparison with etelcalcetide
Method in brief: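 Rat peritoneal mast cells, washed into HBSS + 25 mM HEPES + 1 mM CaCl2 (pH 7.4), were exposed to test compounds at 10 μM final, 48/80 at 4 μg/mL or vehicle for 15 min at 37° C. Histamine released into the supernatant was quantified by ELISA.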

[2] = test system: normal rats (Sprague Dawley); test: In vivo efficacy in normal rat model after a single dose (plasma parathyroid hormone, serum calcium); settings: 3 mg/kg intravenous single dose; for serum calcium level: FIG. 3; for plasma parathyroid hormone level: within 4 h, FIG. 2
Text: 3.4 Evaluation of In Vivo Efficacy of Some of the Compounds Disclosed Herein in a Normal Rat Model after a Single Dose 3.4.1 Objective: To Evaluate the Efficacy of the Test Compounds in Reducing Plasma Parathyroid Hormone Levels after a Single Dose in a Normal Rat Model.
SPF normal adult rats (Sprague Dawley, or SD) with weight of 250-350 g were fed with normal diet in an animal room for 7 days. Rats were randomized into groups of 6, half female and half male, and numbered. One day before the start of treatment, 540 μL of blood was collected from each rat, and the plasma parathyroid hormone level and the serum calcium concentration were measured as baseline. The plasma was separated by K2-EDTA anticoagulation. Blood was collected through jugular vein and preserved on ice after collection. The whole blood was centrifuged at 6,800 rpm for 6 minutes at 2-8° C. The supernatant, i.e., the plasma, was collected and preserved at 2-8° C. For serum separation, blood was collected through jugular vein, let stand at room temperature for 1 h, and centrifuged at room temperature at 3,500 rpm for 10 min. The supernatant, i.e., the serum, was collected and preserved at room temperature. The animals were fasted overnight with free access to water the day before treatment. The day after blood sampling, example compounds 13, 17, 31 and etelcalcetide (AMG-416) were dissolved in a phosphate buffered saline (PBS, Gibco). The rats were intravenously administered with example compounds 13, 17, 31 or etelcalcetide 3 mg/kg or an equal volume of PBS buffer. Subsequently, blood samples were collected as per the following procedures for measuring the parameters. 100 μL of blood was collected at 1 h, 2 h and 4 h post-dose, and the plasma was separated according to the procedures above. The plasma parathyroid hormone levels were measured using the Rat Intact PTH ELISA Kit (Quidel—Immunotopics, Cat. #: 60-2500; ELISA: Enzyme-linked immunosorbent assay) according to the kit instructions. The detailed procedures are as follows: using the streptavidin-preplated reaction strips provided in the kit, 25 μL of reference standard, control or plasma samples were added to the wells. Biotinylated rat parathyroid hormone antibody and rat parathyroid hormone/HRP binding antibody were mixed at a ratio of 1:1, and 100 μL of the mixed solution was added to each well. The reaction strip was sealed with a sealing film, wrapped with an aluminum foil for storage in dark, and shaken on a horizontal shaker at room temperature for 3 h at a rotation speed of 220 rpm. The solutions in the wells were discarded. 350 μL of cleaning working solution was added to the wells for washing and then discarded; 5 washes were performed with the same procedures. Finally the wells were dried. To each well was added 150 μL of horseradish peroxidase ELISA substrate. The reaction strip was sealed with a sealing film, wrapped with an aluminum foil for storage in dark, and shaken on a horizontal shaker at room temperature for 30 min at a rotation speed of 180-220 rpm. 100 μL of ELISA terminating solution was added to each well, and the strip was shaken at 180-220 rpm for 1 min on a horizontal shaker at room temperature. The absorbance at 450 nm in each well was detected within 10 min after the addition of the ELISA terminating solution, while the absorbance at 620 nm was subtracted as background. A mixture of horseradish peroxidase ELISA substrate 150 μL and ELISA terminating solution 100 μL was used as the blank control in the absorbance detection. A standard curve according to the absorbance of the reference standard was plotted, and the actual plasma parathyroid hormone concentration was calculated according to the absorbance of other samples and the standard curve. The determination of the serum calcium concentration was conducted according to the procedures of the relevant kit.

[3] = test system: human red blood cells; test: Hemolytic effect on human red blood cells in vitro (absorbance at 540 nm); assay type: cell-based; settings: 100 μg/mL in PBS, 37° C., 1 h, FIG. 1
Description: To evaluate the hemolytic effect of the compounds disclosed herein on red blood cells in vitro, human whole blood (100 μL) was taken and mixed with a phosphate buffer. The mixture was centrifuged at 4° C. for 10 min and the supernatant was discarded. The red blood cells were resuspended in PBS buffer (900 μL) and centrifuged at 4° C. for 10 min with the supernatant discarded, and the procedures above were repeated once. The test example compounds were dissolved in 1×PBS buffer to a final concentration of 100 μg/mL. The red blood cells were resuspended in solutions of various test example compounds, an octylphenoxy poly(ethyleneoxy)ethanol-100 solution or PBS buffer, and incubated at 37° C. for 1 h. After incubation, the cells were centrifuged at 4° C. for 10 min and the supernatant (100 μL) was pipetted and transferred to a 96-well plate. The absorbance at 540 nm was detected for evaluating the hemolytic effect of the test example compounds on red blood cells in vitro.

Compound	Relative fold of histamine release in vitro [1]	serum calcium level [2]	plasma parathyroid hormone level [2]	hemolytic effect on red blood cells [3]	histamine release levels in rat peritoneal mast cells in vitro relative to etelcalcetide [1]
CC(=O)N[C@H](CSSC[C@H](N)C(=O)O)C(=O)N[C@H](CCCNC(=N)N)C(=O)N[C@H](CCCNC(=N)N)C(=O)N[C@H](Cc1cccs1)C(=O)N[C@H](CCCNC(=N)N)C(=O)N[C@H](C)C(=O)N[C@H](CCCNC(=N)N)C(N)=O [Compound 13, Ac-c(C)-r-r-(D-2-Thi)-r-a-r-NH2] (Ac-[dC](Cys(free,S-linked))[dR][dR][d2Thi][dR][dA][dR]-NH2)	2.38	corresponding reduction	completely reduced	no significant hemolytic effect	–
CC[C@@H](NC(=O)[C@@H](CCCNC(=N)N)NC(=O)[C@@H](CCCNC(=N)N)NC(=O)[C@@H](CSSC[C@H](N)C(=O)O)NC(C)=O)C(=O)N[C@H](CCCNC(=N)N)C(=O)N[C@H](C)C(=O)N[C@H](CCCNC(=N)N)C(N)=O [Compound 17, Ac-c(C)-r-r-(D-Abu)-r-a-r-NH2] (Ac-[dC](Cys(free,S-linked))[dR][dR][dAbu][dR][dA][dR]-NH2)	0.97	corresponding reduction	completely reduced	no significant hemolytic effect	reduction in histamine release levels
CC[C@@H](NC(=O)[C@@H](CCCNC(=N)N)NC(=O)[C@@H](CCCNC(=N)N)NC(=O)[C@@H](CSSC[C@H](N)C(=O)O)NC(C)=O)C(=O)N[C@H](CCCNC(=N)N)C(=O)N[C@H](CO)C(=O)N[C@H](CCCNC(=N)N)C(N)=O [Compound 31, Ac-c(C)-r-r-(D-Abu)-r-s-r-NH2] (Ac-[dC](Cys(free,S-linked))[dR][dR][dAbu][dR][dS][dR]-NH2)	1.29	corresponding reduction	completely reduced	no significant hemolytic effect	reduction in histamine release levels
